Patent US20180370940A1, “SALICYLIC ACID DERIVATIVE, METHOD FOR PREPARING SAME, AND COSMETIC COMPOSITION FOR WHITENING COMPRISING SAME” (AMOREPACIFIC CORPORATION, priority 2015, published 2018)

Target: Mushroom-derived tyrosinase
Test: Inhibitory effect on tyrosinase activity (mushroom tyrosinase, L-tyrosine substrate, absorbance at 490 nm)
Type: biochemical
Conditions: for IC50: mushroom tyrosinase, 1.5 mM L-tyrosine, pH 6.5, 37° C. for 20 minutes, absorbance at 490 nm, read-out: Inhibition of tyrosinase activity (IC50); for inhibitory effect on tyrosinase activity (in words): at a concentration of 200 μM or less
Description: In order to investigate the tyrosinase activity inhibitory effect of the salicylic acid derivatives prepared in Examples 1 to 6, the following experiment was conducted. Mushroom-derived tyrosinase and tyrosine were purchased from Sigma Chemical. Each sample was treated with 150 microliters of 0.1 M phosphate buffer (pH 6.5), 8 microliters of mushroom tyrosinase (2,100 units/ml, 0.05 M phosphate buffer, pH 6.5) and 36 microliters of 1.5 mM L-tyrosine by concentration. After the enzymatic reaction was carried out at 37° C. for 20 minutes, the activity of tyrosinase was measured by measuring the absorbance at 490 nm using a microplate reader (Bio-Rad 3550, Richmond, Calif., U.S.A.). The inhibitory effect of tyrosinase of the salicylic acid derivatives prepared in Examples 1 to 6 was determined based on the following Equation (1). Tyrosinase inhibition ratio (%)=100−((Reaction absorbance of each sample/reaction absorbance of the control group)×100) [Equation 1] The concentration of each test substance which decreased the activity of tyrosinase by 50% was determined by the above Equation, and the obtained results are shown in Table 1.

SMILES | IC50 [µM] | inhibitory effect on tyrosinase activity (in words)
Cc1ccc(O)c(C(=O)OCc2cc(=O)c(O)co2)c1 [Compound of Example 3, 2-hydroxy-5-methyl-benzoic acid 5-hydroxy-4-oxo-4H-pyran-2-ylmethyl ester] | 5.3 | 
O=c1cc(CO)occ1O [Kojic acid, reference compound] | 41 | 
COc1cccc(C(=O)OCc2cc(=O)c(O)co2)c1O [Compound of Example 4, 2-hydroxy-3-methoxy-benzoic acid 5-hydroxy-4-oxo-4H-pyran-2-ylmethyl ester] | 4.21 | 
COc1cccc(C(=O)O)c1O [3-Methoxysalicylic acid, reference compound] | > 200 | do not exhibit the inhibitory effect

The remaining lines, values ahead:

IC50 [µM] | inhibitory effect on tyrosinase activity (in words) | SMILES
3.2 |  | Cc1cccc(C(=O)OCc2cc(=O)c(O)co2)c1O [Compound of Example 1, 2-hydroxy-3-methyl-benzoic acid 5-hydroxy-4-oxo-4H-pyran-2-ylmethyl ester]
> 200 | do not exhibit the inhibitory effect | Cc1cccc(C(=O)O)c1O [3-Methylsalicylic acid, reference compound]
3.29 |  | COc1ccc(O)c(C(=O)OCc2cc(=O)c(O)co2)c1 [Compound of Example 6, 2-Hydroxy-5-methoxy-benzoic acid 5-hydroxy-4-oxo-4H-pyran-2-ylmethyl ester]
1.51 |  | Cc1ccc(C(=O)OCc2cc(=O)c(O)co2)c(O)c1 [Compound of Example 2, 2-hydroxy-4-methyl-benzoic acid 5-hydroxy-4-oxo-4H-pyran-2-ylmethyl ester]
4.2 |  | COc1ccc(C(=O)OCc2cc(=O)c(O)co2)c(O)c1 [Compound of Example 5, 2-hydroxy-4-methoxy-benzoic acid 5-hydroxy-4-oxo-4H-pyran-2-ylmethyl ester]
